From patent publication US20040053407A1, “Method for in vitro culture of ovarian follicles” (priority 2000, published 2004)

Test system: secondary follicles (folliculogenesis)
Assay: In vitro follicle culture testing the influence of taxol on folliculogenesis and oocyte maturation
Format: cell-based, mouse
Settings: secondary follicles scored after 13 days
Source text: Ovarian tissue is isolated from 12 to 14 days old F1 hybrids C57Bl/j6×CBAca mice and kept in a culture dish comprising Leibovitz's L15 medium with GlutaMAX I™ (Gibco BRL 31415-029) with 10% HIA FBS (Heat Inactivated Foetal Bovine Serum) and 0.1% penicillin-streptomycin-mix (Gibco BRL 3032908). The ovaries have to be freed of oviduct and fat.
Not all follicles in suspension from example 1 are suitable for follicle culture. To make sure that all follicles grow at approximately the same rate, the selected follicles should have a similar diameter. In this specific case, a diameter of between 100 and 130 μm is suitable and points to development of the follicle up to the early preantral (secondary) stage. […] FIG. 2b. Said follicles further comprise theca-interstitial cells 17, a basal membrane 19 and a zona pellucida 21. Follicles are observed under a stereomicroscope and measured under an inverted microscope. Suitable follicles are picked up using suitably arranged pasteur pipettes and transferred to a cryovial (for stocking, see example 3) or to a culture plate (for follicle culture, see example 4).
When starting from secondary follicles, one can start immediately with culture using the second medium. This medium will promote adhesion to the culture recipient surface. Culture medium is refreshed every four days. On day 12, the culture medium is refreshed using the third medium in stead of the second. This medium will cause the release of a mucified oocyte-cumulus complex from the follicle overnight, while the oocyte finalises maturation.
Cultures are done in 75 μl of culture medium. When refreshing medium, 30 μl of used medium is removed and 30 μl of fresh medium is added. Schematically, both procedures can be summarised as follows:
The same method is used as in example 4. Secondary follicles are used. […] All media used in the culture steps are constituted as follows:
The culture medium is refreshed every 4 days by removing 30 μl and addition of 30 μl of fresh medium.
After 13 days, follicles are scored on survival, mucification, presence of polar body (PB), and oocyte diameter.

[1] = Taxol 0.01 nM in all media (plates 3+4)
[2] = Taxol 0.1 nM in all media (plates 5+6)
[3] = Taxol 1 nM in all media (plates 7+8)
[4] = Taxol 10 nM in all media (plate 9)

Mucification mean [1]: 100%
PB (presence of polar body) mean [1]: 75%
Mucification mean [2]: 96%
PB (presence of polar body) mean [2]: 75%
Mucification mean [3]: 96%
PB (presence of polar body) mean [3]: 55%
Mucification mean [4]: 0
PB (presence of polar body) mean [4]: 0
SMILES: CC(=O)O[C@H]1C(=O)[C@@]2(C)[C@H]([C@H](OC(=O)c3ccccc3)[C@]3(O)C[C@H](OC(=O)[C@H](O)[C@@H](NC(=O)c4ccccc4)c4ccccc4)C(C)=C1C3(C)C)[C@]1(OC(C)=O)CO[C@@H]1C[C@@H]2O [Taxol]
Survival mean [1]: 87%
Survival mean [2]: 100%
Survival mean [3]: 92%
Survival mean [4]: 0%
